Key:
oval-leafed pondweed = test: Test Example 1: herbicidal activity, application before weed generation under submerged conditions (Table 16, symbol C); format: in vivo, oval-leafed pondweed (Monochoria vaginalis)
Summary of the method: (§1)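 Submerged Wagner pots (alluvial soil, 4 cm water) sown with weed seeds and planted with 2.5-leaf rice seedlings; emulsifiable concentrate diluted in water applied to water surface on sowing day. Held in greenhouse at 25-30 °C; injury scored 0-5 by herbicidal rate after three weeks.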

redroot pigweed [1] = test: Test Example 5: herbicidal effect by foliage application, plastic box (Table 20, symbol N); format: in vivo, redroot pigweed (Amaranthus retroflexus); details: foliage application, 320 g/ha, evaluated three weeks after application
Summary of the method: (§2)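 Post-emergence foliar test in sterilized diluvial soil. Compound applied as water-diluted emulsion at a predetermined rate to 14-day-old plants; evaluation at three weeks.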

green foxtail [2] = test: Test Example 4: herbicidal effect by soil treatment (Table 19, symbol G); format: in vivo, green foxtail (Setaria viridis)
Summary of the method: (§3)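 Scoring uses the grading scale of an earlier test, three weeks post-application. Treatment consists of spraying a diluted emulsion formulation across the surface of sterilized diluvial soil in which seeds are buried near 1.5 cm deep; boxes are kept in a greenhouse between 25° C. and 30° C.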

rice flat sedge = test: Test Example 3: herbicidal effect by foliage application, Wagner pot (Table 18, symbol E); format: in vivo, rice flat sedge (Cyperus iria)
Summary of the method: (§4)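 Plants were sown in alluvial soil held under 0.1–0.5 cm standing water and grown 14 days in a greenhouse at 25–30 °C. An emulsifiable formulation, water-diluted to the set dose, was then sprayed onto the foliage, and effects were scored three weeks later using previously defined criteria.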

wild oat [3] = test: Test Example 4: herbicidal effect by soil treatment (Table 19, symbol I); format: in vivo, wild oat (Avena fatua)
Summary of the method: as §3

barnyard grass [4] = test: Test Example 4: herbicidal effect by soil treatment (Table 19, symbol H); format: in vivo, barnyard grass (Echinochloa crus-galli)
Summary of the method: as §3

velvetleaf [5] = test: Test Example 5: herbicidal effect by foliage application, plastic box (Table 20, symbol M); format: in vivo, velvetleaf (Abutilon theophrasti); details: foliage application, 320 g/ha
Summary of the method: as §2

Italian ryegrass [6] = test: Test Example 4: herbicidal effect by soil treatment (Table 19, symbol K); format: in vivo, Italian ryegrass (Lolium multiflorum)
Summary of the method: as §3

Chinese sprangletop = test: Test Example 3: herbicidal effect by foliage application, Wagner pot (Table 18, symbol D); format: in vivo, chinese sprangletop (Leptochloa chinensis)
Summary of the method: as §4

lambsquarters [7] = test: Test Example 4: herbicidal effect by soil treatment (Table 19, symbol O); format: in vivo, lambsquarters (Chenopodium album)
Summary of the method: as §3

blackgrass [8] = test: Test Example 4: herbicidal effect by soil treatment (Table 19, symbol J); format: in vivo, blackgrass (Alopecurus myosuroides)
Summary of the method: as §3

chickweed = test: Test Example 5: herbicidal effect by foliage application, plastic box (Table 20, symbol P); format: in vivo, common chickweed (Stellaria media); details: foliage application, 320 g/ha, evaluated three weeks after application
Summary of the method: as §2

Japanese bulrush = test: Test Example 1: herbicidal activity, application before weed generation under submerged conditions (Table 16, symbol B); format: in vivo, Japanese bulrush (Schoenoplectus juncoides)
Summary of the method: as §1

velvetleaf [9] = test: Test Example 4: herbicidal effect by soil treatment (Table 19, symbol M); format: in vivo, velvetleaf (Abutilon theophrasti)
Summary of the method: as §3

windgrass [10] = test: Test Example 5: herbicidal effect by foliage application, plastic box (Table 20, symbol L); format: in vivo, windgrass (Apera spica-venti); details: foliage application, 320 g/ha
Summary of the method: as §2

southern crabgrass [11] = test: Test Example 4: herbicidal effect by soil treatment (Table 19, symbol F); format: in vivo, southern crabgrass (Digitaria ciliaris)
Summary of the method: as §3

blackgrass [12] = test: Test Example 5: herbicidal effect by foliage application, plastic box (Table 20, symbol J); format: in vivo, blackgrass (Alopecurus myosuroides); details: foliage application, 320 g/ha
Summary of the method: as §2

southern crabgrass [13] = test: Test Example 5: herbicidal effect by foliage application, plastic box (Table 20, symbol F); format: in vivo, southern crabgrass (Digitaria ciliaris); details: foliage application, 320 g/ha
Summary of the method: as §2

green foxtail [14] = test: Test Example 5: herbicidal effect by foliage application, plastic box (Table 20, symbol G); format: in vivo, green foxtail (Setaria viridis); details: foliage application, 320 g/ha
Summary of the method: as §2

late watergrass = test: Test Example 1: herbicidal activity, application before weed generation under submerged conditions (Table 16, symbol A); format: in vivo, late watergrass (Echinochloa oryzicola)
Summary of the method: as §1

lambsquarters [15] = test: Test Example 5: herbicidal effect by foliage application, plastic box (Table 20, symbol O); format: in vivo, lambsquarters (Chenopodium album); details: foliage application, 320 g/ha
Summary of the method: as §2

barnyard grass [16] = test: Test Example 5: herbicidal effect by foliage application, plastic box (Table 20, symbol H); format: in vivo, barnyard grass (Echinochloa crus-galli); details: foliage application, 320 g/ha
Summary of the method: as §2

persian speedwell = test: Test Example 5: herbicidal effect by foliage application, plastic box (Table 20, symbol R); format: in vivo, Persian speedwell (Veronica persica); details: foliage application, 320 g/ha
Summary of the method: as §2

Italian ryegrass [17] = test: Test Example 5: herbicidal effect by foliage application, plastic box (Table 20, symbol K); format: in vivo, Italian ryegrass (Lolium multiflorum); details: foliage application, 320 g/ha
Summary of the method: as §2

barnyard grass [18] = test: Test Example 3: herbicidal effect by foliage application, Wagner pot (Table 18, symbol H); format: in vivo, barnyard grass (Echinochloa crus-galli)
Summary of the method: as §4

windgrass [19] = test: Test Example 4: herbicidal effect by soil treatment (Table 19, symbol L); format: in vivo, windgrass (Apera spica-venti)
Summary of the method: as §3

wild oat [20] = test: Test Example 5: herbicidal effect by foliage application, plastic box (Table 20, symbol I); format: in vivo, wild oat (Avena fatua); details: foliage application, 320 g/ha
Summary of the method: as §2

redroot pigweed [21] = test: Test Example 4: herbicidal effect by soil treatment (Table 19, symbol N); format: in vivo, redroot pigweed (Amaranthus retroflexus)
Summary of the method: as §3

false cleavers = test: Test Example 4: herbicidal effect by soil treatment (Table 19, symbol Q); format: in vivo, false cleavers (Galium spurium)
Summary of the method: as §3

[22] = evaluated three weeks after application
[23] = amount of applied herbicide 320 g/ha

## CCCC(=O)Oc1c(C)nn(C)c(=O)c1-c1c(-c2ccc(Cl)c(Cl)c2)sc2ccc(F)cc12 [2-082]
oval-leafed pondweed; 320 g/ha applied herbicide
  Herbicidal effect on C: oval-leafed pondweed (grade 0-5): 0 (Herbicidal rate of 5% or less (almost no effect))
Redroot pigweed [1]
  herbicidal effect on N: redroot pigweed: 3 (Herbicidal rate of 40% or more and less than 70%)
Green foxtail [2]; 320 g/ha
  herbicidal effect rating, G: green foxtail: 0 (Herbicidal rate of 5% or less (almost no effect))
Rice flat sedge; 320 g/ha
  herbicidal effect on E (rice flat sedge), rating 0-5: 4 (Herbicidal rate of 70% or more and less than 90%)
Wild oat [3]; 320 g/ha
  herbicidal effect rating, I: wild oat: 0 (Herbicidal rate of 5% or less (almost no effect))
Barnyard grass [4]; 320 g/ha
  herbicidal effect rating, H: barnyard grass: 0 (Herbicidal rate of 5% or less (almost no effect))
Velvetleaf [5]; [22]
  herbicidal effect on M: velvetleaf: 3 (Herbicidal rate of 40% or more and less than 70%)
Italian ryegrass [6]; 320 g/ha
  herbicidal effect rating, K: Italian ryegrass: 0 (Herbicidal rate of 5% or less (almost no effect))
Chinese sprangletop; 320 g/ha
  herbicidal effect on D (Chinese sprangletop), rating 0-5: 2 (Herbicidal rate of 20% or more and less than 40%)
Lambsquarters [7]; 320 g/ha
  herbicidal effect rating, O: lambsquarters: 2 (Herbicidal rate of 20% or more and less than 40%)
Blackgrass [8]; 320 g/ha
  herbicidal effect rating, J: blackgrass: 0 (Herbicidal rate of 5% or less (almost no effect))
chickweed
  herbicidal effect on P: chickweed: 5 (Herbicidal rate of 90% or more (almost completely withered))
Japanese bulrush; 320 g/ha applied herbicide
  Herbicidal effect on B: Japanese bulrush (grade 0-5): 3 (Herbicidal rate of 40% or more and less than 70%)
Velvetleaf [9]; 320 g/ha
  herbicidal effect rating, M: velvetleaf: 0 (Herbicidal rate of 5% or less (almost no effect))
Windgrass [10]; [22]
  herbicidal effect on L: windgrass: 0 (Herbicidal rate of 5% or less (almost no effect))
Southern crabgrass [11]; 320 g/ha
  herbicidal effect rating, F: southern crabgrass: 1 (Herbicidal rate of 5% or more and less than 20%)
Blackgrass [12]; [22]
  herbicidal effect on J: blackgrass: 0 (Herbicidal rate of 5% or less (almost no effect))
Southern crabgrass [13]; [22]
  herbicidal effect on F: southern crabgrass: 0 (Herbicidal rate of 5% or less (almost no effect))
Green foxtail [14]; [22]
  herbicidal effect on G: green foxtail: 0 (Herbicidal rate of 5% or less (almost no effect))
Late watergrass; 320 g/ha applied herbicide
  Herbicidal effect on A: late watergrass (grade 0-5): 2 (Herbicidal rate of 20% or more and less than 40%)
Lambsquarters [15]; [22]
  herbicidal effect on O: lambsquarters: 3 (Herbicidal rate of 40% or more and less than 70%)
Barnyard grass [16]; [22]
  herbicidal effect on H: barnyard grass: 0 (Herbicidal rate of 5% or less (almost no effect))
Persian speedwell; [22]
  herbicidal effect on R: persian speedwell: 3 (Herbicidal rate of 40% or more and less than 70%)
Italian ryegrass [17]; [22]
  herbicidal effect on K: Italian ryegrass: 0 (Herbicidal rate of 5% or less (almost no effect))
Barnyard grass [18]; 320 g/ha
  herbicidal effect on H (barnyard grass), rating 0-5: 4 (Herbicidal rate of 70% or more and less than 90%)
Windgrass [19]; 320 g/ha
  herbicidal effect rating, L: windgrass: 0 (Herbicidal rate of 5% or less (almost no effect))
Wild oat [20]; [22]
  herbicidal effect on I: wild oat: 0 (Herbicidal rate of 5% or less (almost no effect))
Redroot pigweed [21]; 320 g/ha
  herbicidal effect rating, N: redroot pigweed: 3 (Herbicidal rate of 40% or more and less than 70%)
False cleavers; 320 g/ha
  herbicidal effect rating, Q: false cleavers: 0 (Herbicidal rate of 5% or less (almost no effect))

## COCc1ccc(-c2oc3ccc(F)cc3c2-c2c(O)c(C)nn(C)c2=O)cc1 [9-043]
oval-leafed pondweed; [23]
  Herbicidal effect, C: oval-leafed pondweed: 2 (Herbicidal rate of 20% or more and less than 40%)
Green foxtail [2]; [23]
  G: green foxtail, herbicidal effect grade: 5 (Herbicidal rate of 90% or more (almost completely withered))
Rice flat sedge; [23]
  Herbicidal effect on E (rice flat sedge), foliage application: 5 (Herbicidal rate of 90% or more (almost completely withered))
Wild oat [3]; [23]
  I: wild oat, herbicidal effect grade: 0 (Herbicidal rate of 5% or less (almost no effect))
Barnyard grass [4]; [23]
  H: barnyard grass, herbicidal effect grade: 4 (Herbicidal rate of 70% or more and less than 90%)
Velvetleaf [5]; three weeks after application
  herbicidal effect on velvetleaf (M): 4 (Herbicidal rate of 70% or more and less than 90%)
Italian ryegrass [6]; [23]
  K: Italian ryegrass, herbicidal effect grade: 5 (Herbicidal rate of 90% or more (almost completely withered))
Chinese sprangletop; [23]
  Herbicidal effect on D (Chinese sprangletop), foliage application: 3 (Herbicidal rate of 40% or more and less than 70%)
Lambsquarters [7]; [23]
  O: lambsquarters, herbicidal effect grade: 3 (Herbicidal rate of 40% or more and less than 70%)
Blackgrass [8]; [23]
  J: blackgrass, herbicidal effect grade: 4 (Herbicidal rate of 70% or more and less than 90%)
Japanese bulrush; [23]
  Herbicidal effect, B: Japanese bulrush: 0 (Herbicidal rate of 5% or less (almost no effect))
Velvetleaf [9]; [23]
  M: velvetleaf, herbicidal effect grade: 4 (Herbicidal rate of 70% or more and less than 90%)
Windgrass [10]; three weeks after application
  herbicidal effect on windgrass (L): 0 (Herbicidal rate of 5% or less (almost no effect))
Southern crabgrass [11]; [23]
  F: southern crabgrass, herbicidal effect grade: 4 (Herbicidal rate of 70% or more and less than 90%)
Blackgrass [12]; three weeks after application
  herbicidal effect on blackgrass (J): 4 (Herbicidal rate of 70% or more and less than 90%)
Southern crabgrass [13]; three weeks after application
  herbicidal effect on southern crabgrass (F): 3 (Herbicidal rate of 40% or more and less than 70%)
Green foxtail [14]; three weeks after application
  herbicidal effect on green foxtail (G): 4 (Herbicidal rate of 70% or more and less than 90%)
Late watergrass; [23]
  Herbicidal effect, A: late watergrass: 3 (Herbicidal rate of 40% or more and less than 70%)
Lambsquarters [15]; three weeks after application
  herbicidal effect on lambsquarters (O): 4 (Herbicidal rate of 70% or more and less than 90%)
Barnyard grass [16]; three weeks after application
  herbicidal effect on barnyard grass (H): 3 (Herbicidal rate of 40% or more and less than 70%)
Persian speedwell; three weeks after application
  herbicidal effect on persian speedwell (R): 5 (Herbicidal rate of 90% or more (almost completely withered))
Italian ryegrass [17]; three weeks after application
  herbicidal effect on Italian ryegrass (K): 5 (Herbicidal rate of 90% or more (almost completely withered))
Barnyard grass [18]; [23]
  Herbicidal effect on H (barnyard grass), foliage application: 4 (Herbicidal rate of 70% or more and less than 90%)
Windgrass [19]; [23]
  L: windgrass, herbicidal effect grade: 0 (Herbicidal rate of 5% or less (almost no effect))
Wild oat [20]; three weeks after application
  herbicidal effect on wild oat (I): 0 (Herbicidal rate of 5% or less (almost no effect))
Redroot pigweed [21]; [23]
  N: redroot pigweed, herbicidal effect grade: 5 (Herbicidal rate of 90% or more (almost completely withered))
False cleavers; [23]
  Q: false cleavers, herbicidal effect grade: 0 (Herbicidal rate of 5% or less (almost no effect))

From patent US20230085307A1, “PYRIDAZINONE COMPOUND AND HERBICIDE” (NISSAN CHEMICAL CORPORATION, priority 2019, published 2023)
